Source: patent publication US9061981B2, “Diphenyl substituted cyclohexane derivatives, useful as modulators of the estrogen receptors beta” (Acadia Pharmaceuticals Inc., priority 2011, dated 2015)

Legend:
MCP-1 = test: ELISA for MCP-1 in PBMCs after 6OHDA lesion; assay type: in vivo, rat; conditions: 6OHDA rats, blood day 7 post-surgery
Description: Thus, Compound 8 was assessed to determine whether ERβ agonist treatment might alter the inflammatory profile following bilateral 6OHDA lesions of the SN. ELISAs for tumor necrosis factor α (TNFα), monocyte chemotactic protein 1 (MCP-1 aka CCL2), interleukin-6 (IL-6), and interleukin-1β were conducted in peripheral blood mononuclear cells (PBMCs) and brain tissue homogenates from sham or 6OHDA treated animals. […] Both TNFα and MCP-1 were elevated in PBMCs from 6OHDA animals (data not shown). Thus, these two markers were chosen for further examination. […] Treatment with Compound 8 prevented the rise in TNFα in both brain and PBMCs (FIG. 6). MCP-1 was elevated in PBMCs following 6OHDA when blood was taken on day 7 post-surgery, but not in brain homogenates taken on day 14 (following behavioral testing). The increase in MCP-1 in PBMCs was not prevented by Compound 8 treatment, even though the behavioral profile was normal. Thus, TNFα might be a maker of an inflammatory pathway triggered by 6OHDA infusion and prevented by treatment with an ERβ agonist in a manner that also prevents motor deficits and dopamine neuron loss in the substantia nigra.

[1] = Initial toxicity studies, in vitro and in vivo

In the case of `Oc1ccc(C2(c3ccccc3F)CCC(F)(F)CC2)cc1` [Compound 8, 4-(4,4-Difluoro-1-(2-fluorophenyl)cyclohexyl)phenol], the “6OHDA-induced increase of MCP-1 in PBMCs” value (MCP-1) is reported as “not prevented” and the “tolerability in initial toxicity studies” value [1] is reported as “well tolerated”.
